Measured values: paper PMC7400457, “Profiling and Identification of Omeprazole Metabolites in Mouse Brain and Plasma by Isotope Ratio-Monitoring Liquid Chromatography-Mass Spectrometric Method” (Life, 2020)

Test: In vivo metabolite identification (MetID) after concomitant omeprazole/D3-omeprazole administration, mouse plasma and brain
Set-up: species or system Male ICR mice; key to D, i.p. route (brain): found / not found / E, i.v. route (brain): found / not found / F, p.o. route (brain): found / not found / A, i.p. route (plasma): found / not found / B, i.v. route (plasma): found / not found / C, p.o. route (plasma): found / not found: O, found; -, not found
Experimental: The LC–QTOF-MS system was consisted of a chromatographic pump system (Shimadzu CBM–20A/LC–20AD, Shimadzu Scientific Instruments, Riverwood Dr, Columbia, SC, USA), an auto-sampler system (Eksigent CTC HTS PAL, Sciex, Redwood City, CA, USA), equipped with a mass spectrometer (TripleTOF^TM 5600, Sciex, Redwood City, CA, USA). Chromatographic separation was performed using reversed-phase C18 columns (Phenomenex® Kinetex XB–C18 column; 2.1 × 50 mm for bioanalytical sample quantification and 2.1 × 100 mm for MetID). The HPLC mobile phase was comprised of distilled/deionized water containing 0.1% formic acid (phase A) and acetonitrile containing 0.1% formic acid (phase B) with a binary gradient program. The LC–gradient was optimized as follows: 3.2 min for the quantification (0–0.5 min, 5% B; 0.5–1.2 min, 5–95% B; 1.2–1.4 min, 95% B; 1.4–1.5 min, 95–5% B; and 1.5–3.2 min, 5% B with a flow rate of 0.4 mL/min) and 23 min for MetID (0–1 min, 5% B; 1–13 min, 5–40% B; 13–13.5 min, 40–45% B; 13.5–15.5 min, 45–90% B; 15.5–17.9 min, 90% B; 17.9–18 min, 90–5% B; and 18–23 min, 5% B with a flow rate of 0.3mL/min). In particular, the LC separation conditions for MetID studies were optimized where the peaks of metabolites were separated as much as possible. This was critical in searching for any relevant metabolites originated from omeprazole with unique isotope ratio 1:1.
The single reaction monitoring at high sensitivity option (SRMHS) in the product ion scan was used for the quantification of PK as well as MetID samples. The information-dependent analysis (IDA) method including high resolution TOF full scan and seven unique information-dependent product ion scans were performed for the MetID study. The ion spray voltage (ISVF) was set at 5500 V. The source gas (nebulizer [GS1, ion source gas1] and heater [GS2, ion source gas2]) was set at 50 psi, and the source temperature was set at 500 °C with the curtain gas (CUR) flow of […].
A separate in vivo MetID study was conducted. A total of 50 mg/kg (1:1 ratio of omeprazole and D3–omeprazole) was given through each administration route (p.o., i.v. and i.p.). After administration, blood and brain tissue sampling was conducted in the same manner as the previous PK studies. The collected samples were stored at −80 °C until analysis.
The plasma samples obtained from the study dosed with 50 mg/kg were collected according to the Hamilton pooling method. The pooled plasma sample (a total of 274 μL) was transferred to a clean tube, and 1 mL of ACN was added. The pretreated samples were centrifuged at 10,000 rpm for 5 min, and 1100 μL of the supernatant was evaporated to dryness under vacuum in a centrifugal evaporator (CVE–3110, Eyela, Tokyo, Japan) connected to cold trap (UT–1000, Eyela, Tokyo, Japan). The dried residue was re-constituted, shaken and centrifuged. After centrifugation, the supernatant was transferred to an LC–vial for analysis.
The metabolites of omeprazole were investigated using an LC–QTOF–MS assay. […] In this case, any metabolites having a mass difference of 3 daltons between omeprazole and its stable isotope D3–omeprazole were thoroughly searched as possible drug-related metabolites.

COc1ccc2[nH]c([S+]([O-])Cc3ncc(C)c(OC)c3C)nc2c1 (stereo not drawn) [Omeprazole]
O: D, i.p. route (brain): found / not found (50 mg/kg omeprazole/D3-omeprazole 1:1, i.p., mouse brain) | A, i.p. route (plasma): found / not found (50 mg/kg omeprazole/D3-omeprazole 1:1, i.p., mouse plasma) | E, i.v. route (brain): found / not found (50 mg/kg omeprazole/D3-omeprazole 1:1, i.v., mouse brain) | B, i.v. route (plasma): found / not found (50 mg/kg omeprazole/D3-omeprazole 1:1, i.v., mouse plasma) | F, p.o. route (brain): found / not found (50 mg/kg omeprazole/D3-omeprazole 1:1, p.o., mouse brain) | C, p.o. route (plasma): found / not found (50 mg/kg omeprazole/D3-omeprazole 1:1, p.o., mouse plasma)
